Experimental data from the supplement of paper PMC10627819.

Tests used:
[1] = system: B. subtilis 168; experiment: fitness (endpoint OD595 vs no drug) (fraction); higher = more growth
In short: (§1)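 Growth medium was TSB, LB Lennox or CY, and plates were kept at 37 °C. Inoculation was at OD595 0.01 in 384-well plates, at 30 µl per well or 55 µl for S. pneumoniae. OD595 was monitored every 30 min for 14 h and background-subtracted using the first reading. Fitness is the optical density on entering stationary phase divided by the robust mean of no-drug controls, with values capped at 1.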

[2] = system: S. pneumoniae D39V; experiment: as above
In short: as §1

[3] = system: S. aureus Newman; experiment: Bliss interaction score (quartile over a dose matrix) (fitness difference); higher = more antagonism (negative = synergy)
In short: (§2)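 The Bliss score is observed minus expected fitness, where expected fitness is the product of the single-drug fitness values inferred from the combination data. Fitness is the OD595 at the onset of stationary phase over the plate's robust no-drug mean, capped at 1. Scores are summarised by quartiles over technical, biological and donor/recipient replicates.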

[4] = system: B. subtilis 168; experiment: as above
In short: as §2

[5] = system: S. aureus DSM 20231; experiment: as above
In short: as §2

[6] = system: S. pneumoniae D39V; experiment: as above
In short: as §2
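Wherever Bliss interaction score (quartile over a dose matrix) is given: first quartile when negative (synergy) and third quartile when positive (antagonism).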
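Wherever fitness (endpoint OD595 vs no drug) is given: OD595 on entry to stationary phase over no-drug wells; at most 1.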

C[C@H]1c2cccc(O)c2C(=O)C2=C(O)[C@]3(O)C(=O)C(C(N)=O)=C(O)[C@@H](N(C)C)[C@@H]3[C@@H](O)[C@@H]21 [Doxycycline] + CC1=C\[C@@H](O)CC(=O)Cc2nc(co2)C(=O)N2CCC=C2C(=O)O[C@H](C(C)C)[C@H](C)/C=C/C(=O)NC\C=C\1 [Virginiamycin M1]
fitness
Conditions	first compound 0.0155 µg/mL	first compound 0.02 µg/mL	first compound 0.031 µg/mL	first compound 0.04 µg/mL	first compound 0.062 µg/mL	first compound 0.08 µg/mL
[1], partner 0.0625 µg/mL	–	0.898	–	0.805	–	0.572
[1], partner 0.125 µg/mL	–	0.899	–	0.726	–	0.458
[1], partner 0.25 µg/mL	–	0.936	–	0.806	–	0.491
[2], partner 0.5 µg/mL	0.968	–	0.902	–	0.813	–
[2], partner 1 µg/mL	0.998	–	0.847	–	0.831	–
[2], partner 2 µg/mL	0.904	–	0.794	–	0.758	–

[2], one replicate
Conditions	fitness
first compound 0.003875 µg/mL, partner 0.5 µg/mL	≥ 1
first compound 0.003875 µg/mL, partner 1 µg/mL	≥ 1
first compound 0.003875 µg/mL, partner 2 µg/mL	≥ 1
first compound 0.00775 µg/mL, partner 0.5 µg/mL	0.995
first compound 0.00775 µg/mL, partner 1 µg/mL	≥ 1
first compound 0.00775 µg/mL, partner 2 µg/mL	≥ 1
first compound 0.0155 µg/mL, partner 0.15 µg/mL	0.887
first compound 0.0155 µg/mL, partner 0.3 µg/mL	0.823
first compound 0.031 µg/mL, partner 0.15 µg/mL	0.878
first compound 0.031 µg/mL, partner 0.3 µg/mL	0.819
first compound 0.062 µg/mL, partner 0.15 µg/mL	0.793
first compound 0.062 µg/mL, partner 0.3 µg/mL	0.762

Conditions	Bliss interaction score
[3]	-0.0791
[4]	0.0353
[5]	-0.151
[6]	0.0434

C[C@H]1c2cccc(O)c2C(=O)C2=C(O)[C@]3(O)C(=O)C(C(N)=O)=C(O)[C@@H](N(C)C)[C@@H]3[C@@H](O)[C@@H]21 [Doxycycline] + CC(=O)NC[C@H]1CN(c2ccc(N3CCOCC3)c(F)c2)C(=O)O1 [Linezolid]
fitness, one replicate
Conditions	first compound 0.003875 µg/mL	first compound 0.00775 µg/mL	first compound 0.02 µg/mL	first compound 0.031 µg/mL	first compound 0.04 µg/mL	first compound 0.062 µg/mL	first compound 0.08 µg/mL
[1], partner 0.0625 µg/mL	–	–	0.775	–	0.51	–	0.0619
[2], partner 0.2 µg/mL	0.796	0.774	–	0.668	–	0.465	–
[2], partner 0.4 µg/mL	0.7	0.65	–	0.4	–	0.241	–
[2], partner 0.8 µg/mL	0.353	0.37	–	0.24	–	0.116	–

Conditions	fitness
[1], first compound 0.02 µg/mL, partner 0.5 µg/mL	0.0524
[1], first compound 0.04 µg/mL, partner 0.5 µg/mL	0.0497
[1], first compound 0.08 µg/mL, partner 0.25 µg/mL	0.0313
[1], first compound 0.08 µg/mL, partner 0.5 µg/mL	0.0418
[2], first compound 0.0155 µg/mL, partner 0.105 µg/mL	0.702
[2], first compound 0.0155 µg/mL, partner 0.2 µg/mL	0.776
[2], first compound 0.0155 µg/mL, partner 0.21 µg/mL	0.595
[2], first compound 0.0155 µg/mL, partner 0.4 µg/mL	0.575
[2], first compound 0.0155 µg/mL, partner 0.42 µg/mL	0.406
[2], first compound 0.0155 µg/mL, partner 0.8 µg/mL	0.325
[2], first compound 0.031 µg/mL, partner 0.105 µg/mL	0.694
[2], first compound 0.031 µg/mL, partner 0.21 µg/mL	0.602
[2], first compound 0.031 µg/mL, partner 0.42 µg/mL	0.297
[2], first compound 0.062 µg/mL, partner 0.105 µg/mL	0.606
[2], first compound 0.062 µg/mL, partner 0.21 µg/mL	0.477
[2], first compound 0.062 µg/mL, partner 0.42 µg/mL	0.207

Conditions	Bliss interaction score
[3]	-0.0282
[4]	-0.137
[5]	-0.0188
[6]	-0.197
